The text below walks through data of PMC10458514, “Structure–Activity Relationship Studies on 6-Chloro-1-phenylbenzazepines Leads to the Identification of a New Dopamine D1 Receptor Antagonist” (Molecules, 2023).

Several values for one entry are separate records, joined by “and”; a condition that tells them apart may be missing. Identical values can stand only once.

The target in one test is D5R. The settings on record: cited from earlier work.
The target in the next test is T1, D1R (Homo sapiens, UniProt P21728).
T1 construct: Eurofins Discover X
The settings on record: cited from earlier work.

Test [1] deals with D5R (dopamine D5 receptor) (Homo sapiens, UniProt P21918). The conditions noted are these: read-out: Ki D5R; [3H]SCH23390 radioligand; triplicate; na = not active (<50% inhibition in a primary assay when tested at 10 µM).
Test [2] addresses D1R (dopamine D1 receptor) (Homo sapiens, UniProt P21728).

D1R (dopamine D1 receptor), sequence (P21728 whole entry): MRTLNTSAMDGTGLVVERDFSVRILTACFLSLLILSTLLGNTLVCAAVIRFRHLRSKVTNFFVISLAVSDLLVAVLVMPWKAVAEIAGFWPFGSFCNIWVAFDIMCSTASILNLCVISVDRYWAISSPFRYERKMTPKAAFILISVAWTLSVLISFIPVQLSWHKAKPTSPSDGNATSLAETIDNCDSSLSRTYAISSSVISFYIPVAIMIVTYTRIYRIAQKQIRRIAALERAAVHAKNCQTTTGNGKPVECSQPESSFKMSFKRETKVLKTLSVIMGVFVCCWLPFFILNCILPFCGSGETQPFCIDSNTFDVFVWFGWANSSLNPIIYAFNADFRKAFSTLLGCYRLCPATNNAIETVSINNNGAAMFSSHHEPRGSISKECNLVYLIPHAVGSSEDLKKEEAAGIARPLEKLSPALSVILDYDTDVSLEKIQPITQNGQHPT
D5R (dopamine D5 receptor), sequence (P21918 whole entry): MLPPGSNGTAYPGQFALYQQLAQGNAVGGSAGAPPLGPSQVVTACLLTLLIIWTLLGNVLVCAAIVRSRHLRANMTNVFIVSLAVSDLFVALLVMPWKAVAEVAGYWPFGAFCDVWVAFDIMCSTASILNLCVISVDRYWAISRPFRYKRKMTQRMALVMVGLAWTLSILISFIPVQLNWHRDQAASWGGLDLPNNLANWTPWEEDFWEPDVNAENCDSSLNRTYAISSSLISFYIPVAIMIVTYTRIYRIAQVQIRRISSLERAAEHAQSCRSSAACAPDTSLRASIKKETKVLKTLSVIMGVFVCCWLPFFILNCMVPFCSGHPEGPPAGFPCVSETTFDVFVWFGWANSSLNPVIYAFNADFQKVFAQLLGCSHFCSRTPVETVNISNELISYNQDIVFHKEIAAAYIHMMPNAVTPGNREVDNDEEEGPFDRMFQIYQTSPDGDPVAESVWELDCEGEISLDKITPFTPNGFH
T1 sequence (P21728 whole entry): as the sequence (P21728 whole entry) above

Consider `C=CCN1CCc2c(cc(O)c(O)c2Cl)C(c2cccc(C)c2)C1` (centres unmarked) [SKF 83822], for which the Ki (as a rule, the equilibrium dissociation constant of an inhibitor or competing ligand from its target) at D5R was 0.3 nM; on D1R, 0.2 nM.

Consider “N-(9-chloro-8-hydroxy-3-methyl-5-phenyl-2,3,4,5-tetrahydro-1H-benzo[d]azepin-7-yl)methanesulfonamide [Compound 22]”, for which the Ki in test [1] is 166 ± 6.8 nM; in test [2] (read-out: Ki D1R, [3H]SCH23390 radioligand, triplicate, na = not active (<50% inhibition in a primary assay when tested at 10 µM)), 113 nM and 114 nM. In test [2] (ratio of Ki D5R to Ki D1R), the “Selectivity D5/D1” value is on record as 1.5.
